Reference: patent US10160738B2, “Neuroactive substituted cyclopent[a]anthracenes as modulators for GABA type-A receptors” (priority 2013, dated 2018)
Like-named read-outs stand apart in the source and are kept apart here.

Experiments:
[1] = target: T1, rat α1β2γ2L type GABAA receptors expressed in Xenopus laevis oocytes (Rattus norvegicus, UniProt P18508+P62813+P63138, INS375LLRMFSFK); test: Potentiation of GABA-mediated chloride currents, oocyte electrophysiology; assay type: cell-based; settings: ± SEM; for Oocyte electrophysiology (gating) 10 μM: direct current gated by 10 μM compound in absence of GABA, ratio compound only current/2 μM GABA current; for Oocyte electrophysiology 0.1 μM: ratio of currents in presence/absence of 0.1 μM compound; for Oocyte electrophysiology 0.1 μM / Oocyte electrophysiology 1.0 μM / Oocyte electrophysiology 10 μM: 2 μM GABA, N≥4; for Oocyte electrophysiology 1.0 μM: ratio of currents in presence/absence of 1.0 μM compound; for Oocyte electrophysiology 10 μM: ratio of currents in presence/absence of 10 μM compound
T1 construct: expressed in transfected cells; host or cells: Xenopus laevis oocytes
T1 sequence (P62813 28-455, stated change not applied): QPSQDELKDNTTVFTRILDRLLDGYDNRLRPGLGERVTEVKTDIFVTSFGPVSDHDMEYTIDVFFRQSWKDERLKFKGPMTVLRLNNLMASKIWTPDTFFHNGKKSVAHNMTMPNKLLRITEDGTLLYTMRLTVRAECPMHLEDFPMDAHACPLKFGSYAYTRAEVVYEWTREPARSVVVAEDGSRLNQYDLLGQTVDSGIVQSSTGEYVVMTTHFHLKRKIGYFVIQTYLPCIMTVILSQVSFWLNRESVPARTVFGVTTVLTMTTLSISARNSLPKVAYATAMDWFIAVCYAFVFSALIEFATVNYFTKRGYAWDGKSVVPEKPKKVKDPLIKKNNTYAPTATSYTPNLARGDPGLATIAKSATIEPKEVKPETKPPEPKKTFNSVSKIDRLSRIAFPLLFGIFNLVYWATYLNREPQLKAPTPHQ
T1 sequence (P63138 26-474, stated change not applied): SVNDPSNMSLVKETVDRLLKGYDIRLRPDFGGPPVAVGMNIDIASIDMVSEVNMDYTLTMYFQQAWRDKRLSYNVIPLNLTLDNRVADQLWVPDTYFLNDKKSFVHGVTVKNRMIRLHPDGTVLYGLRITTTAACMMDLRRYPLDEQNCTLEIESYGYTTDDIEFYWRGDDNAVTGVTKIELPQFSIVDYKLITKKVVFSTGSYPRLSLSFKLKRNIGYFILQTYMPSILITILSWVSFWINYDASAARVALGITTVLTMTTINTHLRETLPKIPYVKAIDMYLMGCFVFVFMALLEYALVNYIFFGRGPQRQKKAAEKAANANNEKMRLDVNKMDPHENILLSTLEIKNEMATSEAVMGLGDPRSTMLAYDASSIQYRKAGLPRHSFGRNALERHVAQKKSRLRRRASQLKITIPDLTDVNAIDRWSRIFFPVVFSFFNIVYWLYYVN
T1 sequence (P18508 with tags, fused parts or gaps INS375LLRMFSFK): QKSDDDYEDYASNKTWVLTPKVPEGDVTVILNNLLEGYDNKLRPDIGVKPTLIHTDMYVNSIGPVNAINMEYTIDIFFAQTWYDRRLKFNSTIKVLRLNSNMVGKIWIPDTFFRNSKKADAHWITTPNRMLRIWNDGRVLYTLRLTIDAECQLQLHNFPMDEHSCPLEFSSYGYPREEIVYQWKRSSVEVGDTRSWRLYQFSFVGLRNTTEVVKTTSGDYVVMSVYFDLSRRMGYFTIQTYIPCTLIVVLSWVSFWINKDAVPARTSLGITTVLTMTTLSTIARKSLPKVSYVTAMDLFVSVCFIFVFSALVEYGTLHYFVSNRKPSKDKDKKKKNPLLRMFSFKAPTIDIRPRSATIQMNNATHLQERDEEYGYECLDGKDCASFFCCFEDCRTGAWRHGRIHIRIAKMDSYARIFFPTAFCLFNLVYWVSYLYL
Method: The compounds of the present disclosure were evaluated for the ability to potentiate chloride currents mediated by 2 μM GABA at rat α1β2γ2L type GABAA receptors expressed in Xenopus laevis oocytes and the results are shown in Table 2.
The GABA concentration used for the control response was 2 μM. Each compound was evaluated on at least four different oocytes at the concentrations indicated, and the results reported are the ratio of currents measured in the presence/absence of added compound. Gating represents direct current gated by 10 μM compound in the absence of GABA, and this current is reported as the ratio of compound only current/2 μM GABA current. Error limits are calculated as standard error of the mean (N≥4). Methods used are known in the art (see Jiang, X., et al.).

[2] = target: picrotoxin binding site on GABAA receptors; test: [35S]-TBPS displacement (inhibition of [35S]-TBPS binding); settings: non-competitive displacement; duplicate experiments in triplicate; ± SEM
Method: The IC50 values for non-competitive displacers of [^35S]-TBPS from the picrotoxin binding site on GABAA receptors are reported in Table 1.
Results presented are from duplicate experiments performed in triplicate. Error limits are calculated as standard error of the mean. Methods used are known in the art (see Jiang, X., et al., Neurosteroid analogues. 9. Conformationally constrained pregnanes: structure-activity studies of 13,24-cyclo-18,21-dinorcholane analogues of the GABA modulatory and anesthetic steroids (3α,5α)- and […]. J. Med. Chem., 46: 5334-48 (2003)—the contents of which are hereby incorporated by reference in their entirety).

tadpole = test: Tadpole loss of righting reflex (LRR) and loss of swimming reflex (LSR); assay type: in vivo; settings: ± SEM
Method: Table 3 discloses the anesthetic effects of the compounds of the present disclosure. In particular, the anesthetic effect of the compounds of the present disclosure on Loss of Righting Reflex (LRR) and Loss of Swimming Reflex (LSR).
Methods used are known in the art (see Jiang, X., et al.). Error limits are calculated as standard error of the mean (N=10 or more animals at each of five or more different concentrations).

[3] = loss of righting reflex, read-out: Tadpole LRR EC50
[4] = loss of swimming reflex, read-out: Tadpole LSR EC50

Question: For `C[C@@]12CC[C@H]3C[C@H]4C[C@H](O)CC[C@@H]4C[C@@H]3[C@H]1CCC2=O` [MQ-64, (3aR,5aS,6aS,8R,10aR,11aS,11bR)-Hexadecahydro-8-hydroxy-3a-methyl-3H-cyclopent[a]anthracen-3-one], which “Oocyte electrophysiology (gating) 10 μM” value [1] is on record?
Answer: 0.04 ± 0.03

Question: And the “Oocyte electrophysiology 0.1 μM” value [1]?
Answer: 0.98 ± 0.02

Question: What about the “Oocyte electrophysiology 1.0 μM” value [1] of the same compound?
Answer: 2.21 ± 0.17

Question: And the “Oocyte electrophysiology 10 μM” value [1]?
Answer: 8.81 ± 1.87

Question: And the IC50 [2]?
Answer: 346 ± 33 nM

Question: What about the EC50 (tadpole; [3]) of the same compound?
Answer: 3080 ± 10 nM

Question: And the “Tadpole LSR EC50” value (tadpole; loss of swimming reflex)?
Answer: None

Question: And the melting point?
Answer: 152 to 154 °C

Question: Which “Oocyte electrophysiology (gating) 10 μM” value [1] does the source give for `C[C@@]12CC[C@H]3C[C@H]4C[C@H](O)CC[C@@H]4C[C@@H]3[C@H]1CC[C@]21CO1` [MQ-65, (2′R,3R,3aR,5aS,6aS,8R,10aR,11aS,11bR)-Hexadecahydro-3a-methyl-spiro[3H-cyclopent[a]anthracene-3,2′-oxiran]-8-ol] here?
Answer: 0.02 ± 0.0

Question: And the “Oocyte electrophysiology 0.1 μM” value [1]?
Answer: 1.27 ± 0.04

Question: What about the “Oocyte electrophysiology 1.0 μM” value [1] of the same compound?
Answer: 2.94 ± 0.28

Question: And the “Oocyte electrophysiology 10 μM” value [1]?
Answer: 6.86 ± 1.34

Question: And the IC50 [2]?
Answer: 251 ± 66 nM

Question: And the EC50 (tadpole; [3])?
Answer: 2090 ± 120 nM

Question: What about the EC50 (tadpole; [4]) of the same compound?
Answer: 5480 ± 20 nM

Question: What about the melting point of the same compound?
Answer: 143 to 145 °C

Question: Which “Oocyte electrophysiology (gating) 10 μM” value [1] does the source give for `C[C@]12CC[C@@H]3C[C@@H]4C[C@@H](O)CC[C@H]4C[C@H]3[C@@H]1CCC2=O` [MQ-74, (3aS,5aR,6aR,8S,10aS,11aR,11bS)-Hexadecahydro-8-hydroxy-3a-methyl-cyclopent[a]anthracen-3-one] here?
Answer: −0.01 ± 0.04

Question: What about the “Oocyte electrophysiology 0.1 μM” value [1] of the same compound?
Answer: 0.80 ± 0.06

Question: And the “Oocyte electrophysiology 1.0 μM” value [1]?
Answer: 1.00 ± 0.0

Question: What about the “Oocyte electrophysiology 10 μM” value [1] of the same compound?
Answer: 3.88 ± 0.56

Question: What about the IC50 [2] of the same compound?
Answer: 1190 nM

Question: And the EC50 (tadpole; [3])?
Answer: 3220 ± 30 nM

Question: And the EC50 (tadpole; [4])?
Answer: > 10000 nM

Question: What about the melting point of the same compound?
Answer: 152 to 154 °C

Question: Which “Oocyte electrophysiology (gating) 10 μM” value [1] does the source give for `C[C@]12CC[C@@H]3C[C@@H]4C[C@@H](O)CC[C@H]4C[C@H]3[C@@H]1CC[C@@]21CO1` [MQ-75, (2′S,3S,3aS,5aR,6aR,8S,10aS,11aR,11bS)-Hexadecahydro-3a-methyl-spiro[3H-cyclopent[a]anthracene-3,2′-oxiran]-8-ol] here?
Answer: 0.13 ± 0.04

Question: What about the “Oocyte electrophysiology 0.1 μM” value [1] of the same compound?
Answer: 1.36 ± 0.03

Question: And the “Oocyte electrophysiology 1.0 μM” value [1]?
Answer: 7.67 ± 0.71

Question: What about the “Oocyte electrophysiology 10 μM” value [1] of the same compound?
Answer: 18.86 ± 1.99

Question: And the IC50 [2]?
Answer: 226 ± 2 nM

Question: What about the EC50 (tadpole; [3]) of the same compound?
Answer: 260 ± 40 nM

Question: What about the EC50 (tadpole; [4]) of the same compound?
Answer: 950 nM

Question: And the melting point?
Answer: 140 to 142 °C

Question: With `C[C@]12CC[C@@H]3C[C@@H]4C[C@@H](O)CC[C@H]4C[C@H]3[C@@H]1CC=C2C#N` [MQ-76, (3aS,5aR,6aR,8S,10aS,11aR,11bS)-8-Hydroxy-3a-methyl-3a,4,5,5a,6,6a,7,8,9,10,10a,11,11a,11b-Tetradecahydro-1H-cyclopent[a]anthracene-3-carbonitrile] as the compound, how does the “Oocyte electrophysiology (gating) 10 μM” value [1] read?
Answer: 0.31 ± 0.30

Question: And the “Oocyte electrophysiology 0.1 μM” value [1]?
Answer: 0.95 ± 0.20

Question: What about the “Oocyte electrophysiology 1.0 μM” value [1] of the same compound?
Answer: 2.08 ± 0.16

Question: And the “Oocyte electrophysiology 10 μM” value [1]?
Answer: 9.43 ± 0.77

Question: What about the IC50 [2] of the same compound?
Answer: 574 ± 142 nM

Question: What about the EC50 (tadpole; [3]) of the same compound?
Answer: 390 ± 10 nM

Question: And the EC50 (tadpole; [4])?
Answer: 1730 ± 30 nM

Question: And the melting point?
Answer: 164 to 166 °C

Question: With `C[C@]12CC[C@@H]3C[C@@H]4C[C@@H](O)CC[C@H]4C[C@H]3[C@@H]1CC[C@@H]2C#N` [MQ-77, (3S,3aS,5aR,6aR,8S,10aS,11aR,11bS)-Hexadecahydro-8-hydroxy-3a-methyl-cyclopent[a]anthracene-3-carbonitrile] as the compound, how does the “Oocyte electrophysiology (gating) 10 μM” value [1] read?
Answer: 0.02 ± 0.09

Question: And the “Oocyte electrophysiology 0.1 μM” value [1]?
Answer: 1.03 ± 0.10

Question: And the “Oocyte electrophysiology 1.0 μM” value [1]?
Answer: 3.65 ± 0.39

Question: And the “Oocyte electrophysiology 10 μM” value [1]?
Answer: 14.80 ± 1.53

Question: And the IC50 [2]?
Answer: 400 ± 118 nM

Question: And the EC50 (tadpole; [3])?
Answer: 590 ± 70 nM

Question: And the EC50 (tadpole; [4])?
Answer: 1730 ± 40 nM

Question: For `C[C@@]12CC[C@H]3C[C@H]4C[C@H](O)CC[C@@H]4C[C@@H]3[C@H]1CC=C2C#N` [MQ-81, (3aR,5aS,6aS,8R,10aR,11aS,11bR)-8-Hydroxy-3a-methyl-3a,4,5,5a,6,6a,7,8,9,10,10a,11,11a,11b-Tetradecahydro-1H-cyclopent[a]anthracene-3-carbonitrile], which “Oocyte electrophysiology (gating) 10 μM” value [1] is on record?
Answer: 0.09 ± 0.01

Question: And the “Oocyte electrophysiology 0.1 μM” value [1]?
Answer: 1.37 ± 0.14

Question: What about the “Oocyte electrophysiology 1.0 μM” value [1] of the same compound?
Answer: 5.69 ± 0.17

Question: What about the “Oocyte electrophysiology 10 μM” value [1] of the same compound?
Answer: 18.39 ± 0.70

Question: And the IC50 [2]?
Answer: 174 ± 14 nM

Question: What about the EC50 (tadpole; [3]) of the same compound?
Answer: 770 ± 40 nM

Question: And the EC50 (tadpole; [4])?
Answer: 1730 ± 40 nM

Question: What about the melting point of the same compound?
Answer: 165 to 167 °C

Question: Which “Oocyte electrophysiology (gating) 10 μM” value [1] does the source give for `C[C@@]12CC[C@H]3C[C@H]4C[C@H](O)CC[C@@H]4C[C@@H]3[C@H]1CC(=O)C2` [MQ-82, (3aS,5aS,6aS,8R,10aR,11aS,11bR)-8-Hydroxy-3a-methyl-hexadecahydro-2H-cyclopenta[a]anthracen-2-one] here?
Answer: 0.19 ± 0.17

Question: What about the “Oocyte electrophysiology 0.1 μM” value [1] of the same compound?
Answer: 0.80 ± 0.04

Question: What about the “Oocyte electrophysiology 1.0 μM” value [1] of the same compound?
Answer: 0.83 ± 0.06

Question: What about the “Oocyte electrophysiology 10 μM” value [1] of the same compound?
Answer: 2.43 ± 0.34

Question: What about the IC50 [2] of the same compound?
Answer: 2680 nM

Question: What about the EC50 (tadpole; [3]) of the same compound?
Answer: 3110 ± 10 nM

Question: And the EC50 (tadpole; [4])?
Answer: 7930 nM

Question: And the melting point?
Answer: 145 to 147 °C
